Where no end group is shown, it is not given here. The star is where a group is joined. For = O=C*
How the values were obtained:
mast cells = experiment: Rat skin model for inhibition of mast cell degranulation induced by Compound 48/80 (area of capillary permeability/bluing); type: in vivo, rat (male Sprague-Dawley)
Excerpt: The Rat Skin Model for Determination of Inhibition of Mast Cell Degranulation
Allergy induced asthma results from exposure of substances (allergens) to which an organism has become hypersensitized. Exposure to allergen results in degranulation of mast cells in the lung, releasing leukotrienes and histamines. […] Respiratory symptoms resulting from such an exposure range from mild (itching and sneezing) to potentially fatal (asthma), including in extreme chronic cases death by anaphylaxis.
In this model, the blood plasma of the experimental rat is labeled with the dye trypan blue. This soluble dye is carried in the bloodstream as a passive marker of plasma itself, and is excluded from live cells. Intact blood vessels including the capillary system, retain this dye under normal circumstances. A compound, which induces degranulation of mast cells (resulting in leukotriene and histamine release), is injected into the skin to simulate allergen-induced degranulation. In these experiments, Compound 48/80 was used for this purpose. In the events following leukotriene and histamine release, capillary permeability is increased, and plasma, dyed blue, leaks from capillaries and dyes the skin surrounding the injection site blue. The area of bluing is a measure of the amount of Compound 48/80 injected.
A compound can be tested for “anti-leukotriene” and/or “anti-histamine” activity by mixing it with Compound 48/80 prior to injection.
The rat skin model was undertaken and validated. Various peptides were tested at a predetermined dose for anti-leukotriene and/or anti-histamine activity. The dose selected allowed a general comparison to f-Met-Leu-Phe, which was standard compound for comparison.
A “dose response” titration was performed for some compounds and compared with the standard compound. Observing serial decreases in the size areas of capillary permeability using serially smaller doses of the putative inhibitory compound validates the inhibition of leukotriene and/or histamine release observed in the initial predetermined dose test.
Reagents were obtained from Sigma or Aldrich, with the exception of ketamine, a veterinary anaesthetic that was obtained from various veterinary suppliers. The rats used were male Sprague-Dawley breed, 220-240 g at time of purchase from B&K International.
For the rat skin reaction, rats were anaesthetized with 0.25 ml 10 mg/ml ketamine. 1.0 ml trypan blue in saline (sterile filtered) was administered in a tail vein, and the back of the rat was shaved. Four intradermal injection sites per rat were used for test and control injections.
Compound 48/80 was prepared as a 1.5 mg/ml stock solution in saline. […] Serial dilutions in saline to working levels were prepared just prior to injection of each rat.
Peptides were prepared as a 23 mM stock solution in DMSO, and stored at −20° C. between experiments. At the time of use, the frozen stock solutions were thawed, and appropriate aliquots added to dilutions of Compound 48/80, along with appropriate amounts of DMSO, to result in the ratio of 5 μl DMSO to 0.1 ml aqueous Compound 48/80.
For injections, 0.1 ml Compound […], +/− test compounds were injected intradermally into anaesthetized, dyed, and shaved rats. Following a 15 minute incubation, the rats were sacrificed by cervical dislocation and the back skin was evulsed and placed on a light box. An image of the backlit skin was digitized using a CCD video capture camera and compatible hardware/software. The digitized image was analyzed using a scientific graphics analysis software package, and the areas of capillary permeability (bluing) were integrated and digital values were obtained for further analysis.
A dose response curve was generated using Compound 48/80 at various doses from ca. 0.01 μg through ca 15 μg. […] A dose of 0.15 μg of Compound 48/80 was selected for conducting further tests.
A dose response curve was prepared for the standard compound, f-Met-Leu-Phe, using the selected dose of 0.15 μg Compound 48/80. […]

[1] = test system: type II collagen arthritis; experiment: Induced type II collagen arthritis mouse model; type: in vivo, mouse (DBA/1 male); details: HK-X TC or footpad, 0.4 or 4 mg/kg for 20 days; x-ray and histology
Excerpt: A mouse model is used to evaluate the effect of the compounds of the present invention on the histological, radiographic and clinical appearance of induced type II collagen arthritis. Mice: DBA/1(2) male mice weighing 25 gms (Jackson Laboratories, Bar Harbor, Me. or B&K Universal, Kent Wash.) are used for this work. This strain of mouse is susceptible to CIA by the injection of heterologous type II collagen. Bovine Collagen (BC), Complete Freund's Adjuvant (CFA) and Incomplete Freund's Adjuvant (ICFA) can be obtained from Sigma Chemical. Antigen for immunization is processed in 0.1 M acetic acid and formulated with CFA or ICFA. […] The degree of cellularity and areas of inflammation are quantified by using digitization of histological photomicrographs and applying standard area and point counting techniques as described above. […] The average area of soft tissue (pannus) of the joint is determined by analysis of computer digitized radiographs, along with changes in density of the adjacent hard tissues by comparison with internal standards included with each radiograph. […] The significance of the differences in density and area for control and experimental mice is assessed using paired T-tests at each time point. […] Swelling of hind paws is also quantitated by measuring the thickness of the ankle from the medial to the lateral malledus with a constant tension caliper. […]

f-Met-Leu-Phe-Phe (For-MLFF) [Example 9]
Inhibition of degranulation induced by Compound 48/80, dose response curve (mast cells; doses of 0 to about 230 nM peptide, 0.15 μg Compound 48/80 (FIG. 2, FIG. 3)): Surprisingly remarkable inhibition of degranulation induced by Compound 48/80 was clearly shown | % Degranulation (mast cells; percent mast cell degranulation produced by 48/80, 100 nanomoles peptide, 0.15 μg Compound 48/80): 1-3% | Degree of arthritis [1]: reduce the degree of arthritis

Reference: patent publication US20030130200A1, “Small peptides and methods for treatment of asthma and inflammation” (Hisatek, LLC, priority 1997, published 2003)
